Patent US20160022675A1, “PROCESSES FOR PREPARING TETRAHYDROISOQUINOLINES” (BRISTOL-MYERS SQUIBB COMPANY, priority 2013, published 2016)

Key:
5-HT1A = molecular target: T1, 5-HT1A (Homo sapiens, UniProt P08908); test: Off-target activity at 5-HT1A; assay type: binding; conditions: off-target site; read-out: 5-HT1A inhibition constant Ki
T1 sequence (P08908 1-422): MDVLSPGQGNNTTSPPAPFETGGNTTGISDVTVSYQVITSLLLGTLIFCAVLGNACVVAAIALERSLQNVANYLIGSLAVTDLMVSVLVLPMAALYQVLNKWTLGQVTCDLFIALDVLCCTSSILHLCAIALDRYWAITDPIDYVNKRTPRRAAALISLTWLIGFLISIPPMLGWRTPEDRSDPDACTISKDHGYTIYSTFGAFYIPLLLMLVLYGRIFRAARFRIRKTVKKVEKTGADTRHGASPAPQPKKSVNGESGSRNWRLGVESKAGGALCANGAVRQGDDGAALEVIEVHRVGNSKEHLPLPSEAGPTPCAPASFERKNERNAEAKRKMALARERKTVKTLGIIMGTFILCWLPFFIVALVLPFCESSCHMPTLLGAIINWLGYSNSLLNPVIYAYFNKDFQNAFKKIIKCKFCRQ

adrenergic α1A receptor = molecular target: T2, adrenergic α1A receptor (Homo sapiens, UniProt P35348); test: Off-target activity at adrenergic α1A receptor; assay type: binding; conditions: off-target site
T2 sequence (P35348 1-466): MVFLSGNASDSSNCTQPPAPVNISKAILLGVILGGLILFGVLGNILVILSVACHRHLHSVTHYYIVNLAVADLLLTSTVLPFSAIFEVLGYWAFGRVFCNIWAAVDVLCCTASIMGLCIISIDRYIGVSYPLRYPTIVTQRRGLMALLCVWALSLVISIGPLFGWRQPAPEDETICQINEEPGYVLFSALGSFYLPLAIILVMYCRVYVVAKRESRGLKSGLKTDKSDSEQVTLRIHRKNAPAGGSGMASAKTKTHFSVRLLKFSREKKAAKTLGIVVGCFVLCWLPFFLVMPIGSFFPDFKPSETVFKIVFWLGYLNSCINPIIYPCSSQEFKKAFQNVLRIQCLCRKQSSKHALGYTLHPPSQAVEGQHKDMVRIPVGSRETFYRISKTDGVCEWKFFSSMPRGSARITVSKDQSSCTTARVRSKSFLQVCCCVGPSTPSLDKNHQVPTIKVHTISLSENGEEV

adrenergic α1B receptor = molecular target: T3, adrenergic α1B receptor (Homo sapiens, UniProt P35368); test: Off-target activity at adrenergic α1B receptor; assay type: binding; conditions: off-target site
T3 sequence (P35368 1-520): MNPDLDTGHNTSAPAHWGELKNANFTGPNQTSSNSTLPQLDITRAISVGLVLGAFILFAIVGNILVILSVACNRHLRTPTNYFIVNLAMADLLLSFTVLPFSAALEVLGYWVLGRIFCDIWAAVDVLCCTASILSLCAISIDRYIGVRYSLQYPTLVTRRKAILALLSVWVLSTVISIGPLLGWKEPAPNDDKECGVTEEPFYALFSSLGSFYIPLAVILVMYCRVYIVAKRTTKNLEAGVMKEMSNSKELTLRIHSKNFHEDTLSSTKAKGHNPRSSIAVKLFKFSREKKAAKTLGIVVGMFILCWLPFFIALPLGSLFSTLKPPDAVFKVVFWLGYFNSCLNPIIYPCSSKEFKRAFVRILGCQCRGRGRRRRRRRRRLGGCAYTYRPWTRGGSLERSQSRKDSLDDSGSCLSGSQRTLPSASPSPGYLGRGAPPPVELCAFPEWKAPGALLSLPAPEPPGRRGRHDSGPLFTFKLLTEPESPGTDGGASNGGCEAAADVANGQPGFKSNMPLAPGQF

adrenergic α1D receptor = molecular target: T4, adrenergic α1D receptor (Homo sapiens, UniProt P25100); test: Off-target activity at adrenergic α1D receptor; assay type: binding; conditions: off-target site
T4 sequence (P25100 1-572): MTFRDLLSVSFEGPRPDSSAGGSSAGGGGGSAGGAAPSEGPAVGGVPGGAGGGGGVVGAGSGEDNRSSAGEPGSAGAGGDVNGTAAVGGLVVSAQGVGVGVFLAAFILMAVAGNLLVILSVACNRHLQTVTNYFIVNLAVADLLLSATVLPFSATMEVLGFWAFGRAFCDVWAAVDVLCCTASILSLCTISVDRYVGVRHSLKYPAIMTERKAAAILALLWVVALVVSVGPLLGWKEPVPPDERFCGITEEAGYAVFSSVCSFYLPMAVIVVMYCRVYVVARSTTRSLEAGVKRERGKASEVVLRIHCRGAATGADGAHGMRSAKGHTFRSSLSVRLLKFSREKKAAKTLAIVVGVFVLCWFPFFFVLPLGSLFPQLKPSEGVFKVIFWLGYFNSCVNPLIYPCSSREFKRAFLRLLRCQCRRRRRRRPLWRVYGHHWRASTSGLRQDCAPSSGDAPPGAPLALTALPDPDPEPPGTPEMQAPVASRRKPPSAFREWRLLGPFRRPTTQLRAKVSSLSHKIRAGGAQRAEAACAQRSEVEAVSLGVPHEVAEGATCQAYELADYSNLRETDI

SERT = SERT (Homo sapiens, UniProt P31645); test: Competition binding, membranes from HEK cells overexpressing SERT; parameters: expressed in transfected cells; host or cells: HEK cells (membranes); conditions: radioligand at Kd concentration; HEK cell membranes; read-out: SERT binding IC50
Method: (§1) Competition binding experiments were performed to determine the in vitro binding potencies (IC50 values) of Compound 1-(4S) for SERT, DAT, and NET. Membranes prepared from human embryonic kidney (HEK) cells overexpressing each transporter were employed. Radioligands were used at their respective affinity constant (Kd) concentrations for each transporter to enable direct comparisons of the IC50 values between assays.

DAT = DAT (Homo sapiens, UniProt Q01959); test: Competition binding, membranes from HEK cells overexpressing DAT; parameters: expressed in transfected cells; host or cells: HEK cells (membranes); conditions: radioligand at Kd concentration; HEK cell membranes
Method: as §1

NET = NET (Homo sapiens, UniProt P23975); test: Competition binding, membranes from HEK cells overexpressing NET; parameters: expressed in transfected cells; host or cells: HEK cells (membranes); conditions: radioligand at Kd concentration; HEK cell membranes
Method: as §1

Sequence of NET (P23975 whole entry): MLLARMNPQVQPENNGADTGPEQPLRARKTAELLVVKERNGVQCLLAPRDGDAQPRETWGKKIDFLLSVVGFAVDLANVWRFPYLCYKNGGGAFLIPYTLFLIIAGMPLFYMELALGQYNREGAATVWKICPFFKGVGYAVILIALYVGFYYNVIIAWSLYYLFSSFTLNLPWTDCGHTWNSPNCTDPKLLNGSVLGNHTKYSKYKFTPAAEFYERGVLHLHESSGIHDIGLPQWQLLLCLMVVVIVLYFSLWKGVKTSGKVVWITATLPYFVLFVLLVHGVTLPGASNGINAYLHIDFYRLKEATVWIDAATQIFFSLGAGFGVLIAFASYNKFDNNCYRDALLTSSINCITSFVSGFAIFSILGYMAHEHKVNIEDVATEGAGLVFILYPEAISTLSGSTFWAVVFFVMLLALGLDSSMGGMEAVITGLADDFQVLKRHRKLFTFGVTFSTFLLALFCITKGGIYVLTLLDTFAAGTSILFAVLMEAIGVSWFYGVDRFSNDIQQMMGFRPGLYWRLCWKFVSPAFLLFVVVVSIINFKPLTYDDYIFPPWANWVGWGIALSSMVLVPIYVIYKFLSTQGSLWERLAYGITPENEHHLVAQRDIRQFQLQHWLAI
Sequence of DAT (Q01959 whole entry): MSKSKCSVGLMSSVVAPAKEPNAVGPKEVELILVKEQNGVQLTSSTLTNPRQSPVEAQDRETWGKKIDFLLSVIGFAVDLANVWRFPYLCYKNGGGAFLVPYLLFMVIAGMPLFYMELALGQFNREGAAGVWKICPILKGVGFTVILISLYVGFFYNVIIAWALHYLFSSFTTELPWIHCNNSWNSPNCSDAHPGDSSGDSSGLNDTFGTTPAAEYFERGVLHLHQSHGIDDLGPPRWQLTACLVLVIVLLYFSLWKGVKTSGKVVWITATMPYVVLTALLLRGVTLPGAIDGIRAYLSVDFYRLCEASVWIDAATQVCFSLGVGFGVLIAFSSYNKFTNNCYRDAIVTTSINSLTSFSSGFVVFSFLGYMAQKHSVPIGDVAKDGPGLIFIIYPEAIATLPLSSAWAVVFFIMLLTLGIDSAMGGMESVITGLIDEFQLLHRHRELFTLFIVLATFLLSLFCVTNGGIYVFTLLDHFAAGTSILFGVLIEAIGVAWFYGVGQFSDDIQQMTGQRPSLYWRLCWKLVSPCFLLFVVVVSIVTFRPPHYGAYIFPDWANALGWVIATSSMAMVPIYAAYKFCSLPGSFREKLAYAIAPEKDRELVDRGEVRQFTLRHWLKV
Sequence of SERT (P31645 whole entry): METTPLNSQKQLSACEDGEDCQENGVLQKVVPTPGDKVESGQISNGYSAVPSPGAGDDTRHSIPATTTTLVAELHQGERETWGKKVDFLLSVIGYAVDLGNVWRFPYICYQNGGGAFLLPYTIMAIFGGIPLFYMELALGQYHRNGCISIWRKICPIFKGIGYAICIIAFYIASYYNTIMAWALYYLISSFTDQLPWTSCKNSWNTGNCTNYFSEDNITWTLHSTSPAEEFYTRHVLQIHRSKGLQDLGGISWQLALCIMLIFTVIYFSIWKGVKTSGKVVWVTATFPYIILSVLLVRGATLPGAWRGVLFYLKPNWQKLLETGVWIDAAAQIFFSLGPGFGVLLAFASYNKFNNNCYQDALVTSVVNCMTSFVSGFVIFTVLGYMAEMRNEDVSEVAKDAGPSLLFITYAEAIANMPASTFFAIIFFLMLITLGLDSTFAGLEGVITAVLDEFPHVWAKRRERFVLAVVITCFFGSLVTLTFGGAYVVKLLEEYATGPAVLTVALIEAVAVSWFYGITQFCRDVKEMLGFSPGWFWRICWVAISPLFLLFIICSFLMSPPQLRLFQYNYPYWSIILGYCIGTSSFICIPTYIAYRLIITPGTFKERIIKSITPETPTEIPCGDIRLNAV

Ki (5-HT1A): 99 nM
Ki (adrenergic α1A receptor): 410 nM
Ki (adrenergic α1B receptor): 260 nM
Ki (adrenergic α1D receptor): 480 nM
IC50 (SERT): 0.21 ± 0.04 nM
IC50 (DAT): 6.19 ± 1 nM
IC50 (NET): 26.7 ± 3 nM
Compound: Nc1ccc(-c2ccc3c(c2)CNC[C@H]3c2ccc3ccccc3c2)nn1 [Compound 31]
